For five compounds, AC50 results are on record in ChEMBL document CHEMBL5291721, “A preclinical secondary pharmacology resource illuminates target-adverse drug reaction associations of marketed drugs” (Nat Commun, 2023).

Test [1] addresses T1, Retinoic acid receptor gamma (Homo sapiens, UniProt P13631).
T1 sequence (P13631 whole entry): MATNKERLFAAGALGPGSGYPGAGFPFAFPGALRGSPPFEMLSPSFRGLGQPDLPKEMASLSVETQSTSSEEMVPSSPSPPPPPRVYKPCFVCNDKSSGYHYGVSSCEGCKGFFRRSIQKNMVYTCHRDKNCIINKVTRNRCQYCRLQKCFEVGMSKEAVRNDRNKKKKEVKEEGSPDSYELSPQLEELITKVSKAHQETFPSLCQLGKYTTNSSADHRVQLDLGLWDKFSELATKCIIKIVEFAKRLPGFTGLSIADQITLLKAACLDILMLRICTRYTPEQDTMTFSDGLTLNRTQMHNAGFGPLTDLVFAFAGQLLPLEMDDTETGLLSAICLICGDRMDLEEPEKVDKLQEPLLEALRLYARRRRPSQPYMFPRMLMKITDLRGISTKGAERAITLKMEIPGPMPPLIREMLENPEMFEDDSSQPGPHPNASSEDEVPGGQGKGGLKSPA
It counts as functional, cell-based.

Test [2] concerns the target T2, Estrogen receptor (Homo sapiens, UniProt P03372).
T2 sequence (P03372 whole entry): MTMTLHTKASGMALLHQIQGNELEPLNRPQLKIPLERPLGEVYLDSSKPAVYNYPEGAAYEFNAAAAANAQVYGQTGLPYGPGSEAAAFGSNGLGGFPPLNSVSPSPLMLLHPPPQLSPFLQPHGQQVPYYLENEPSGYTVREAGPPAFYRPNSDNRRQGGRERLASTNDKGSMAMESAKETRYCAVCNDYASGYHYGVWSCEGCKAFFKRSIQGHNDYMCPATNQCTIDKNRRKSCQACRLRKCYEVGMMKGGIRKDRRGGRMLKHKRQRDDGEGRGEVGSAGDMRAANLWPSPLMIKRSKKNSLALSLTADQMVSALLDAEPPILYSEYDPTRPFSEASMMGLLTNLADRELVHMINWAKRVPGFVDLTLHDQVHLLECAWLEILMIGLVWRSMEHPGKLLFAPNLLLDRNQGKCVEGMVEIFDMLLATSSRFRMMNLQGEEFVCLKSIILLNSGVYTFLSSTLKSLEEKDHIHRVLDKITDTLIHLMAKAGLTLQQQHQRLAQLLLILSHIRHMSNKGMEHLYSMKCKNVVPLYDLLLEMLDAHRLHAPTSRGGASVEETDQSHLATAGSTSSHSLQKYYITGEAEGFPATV
Format: functional.

Test [3] concerns the target Type-2 angiotensin II receptor (Homo sapiens, UniProt P50052). Format: functional.
In test [4] the target is Synaptic vesicular amine transporter (Rattus norvegicus, UniProt Q01827). It counts as functional.
Chain of Synaptic vesicular amine transporter (Q01827 whole entry): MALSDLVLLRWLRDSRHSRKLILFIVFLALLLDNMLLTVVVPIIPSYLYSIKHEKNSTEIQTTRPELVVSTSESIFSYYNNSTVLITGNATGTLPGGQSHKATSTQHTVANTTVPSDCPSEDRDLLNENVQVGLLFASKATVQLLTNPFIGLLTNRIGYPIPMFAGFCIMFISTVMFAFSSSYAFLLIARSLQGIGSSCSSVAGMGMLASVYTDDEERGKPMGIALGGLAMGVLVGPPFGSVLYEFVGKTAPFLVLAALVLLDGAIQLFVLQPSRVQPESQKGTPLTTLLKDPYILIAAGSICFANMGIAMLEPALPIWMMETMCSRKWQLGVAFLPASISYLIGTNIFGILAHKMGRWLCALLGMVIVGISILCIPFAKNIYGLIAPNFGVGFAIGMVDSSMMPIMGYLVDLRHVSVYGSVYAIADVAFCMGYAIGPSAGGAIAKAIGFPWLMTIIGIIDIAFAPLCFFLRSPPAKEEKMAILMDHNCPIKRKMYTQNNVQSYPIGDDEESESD
Test [5] addresses T3, Adenosine receptor A1 (Homo sapiens, UniProt P30542).
T3 sequence (P30542 whole entry): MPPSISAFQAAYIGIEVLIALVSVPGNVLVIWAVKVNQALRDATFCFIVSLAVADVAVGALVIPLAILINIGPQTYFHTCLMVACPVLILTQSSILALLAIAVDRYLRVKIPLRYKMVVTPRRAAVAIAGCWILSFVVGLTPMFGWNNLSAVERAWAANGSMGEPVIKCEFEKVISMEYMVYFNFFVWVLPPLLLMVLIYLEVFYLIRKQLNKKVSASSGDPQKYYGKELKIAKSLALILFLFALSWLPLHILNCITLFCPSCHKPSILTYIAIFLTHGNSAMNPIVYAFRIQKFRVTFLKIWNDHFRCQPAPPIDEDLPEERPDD

The target of test [6] is T4, Alpha-1A adrenergic receptor (Homo sapiens, UniProt P35348).
T4 sequence (P35348 whole entry): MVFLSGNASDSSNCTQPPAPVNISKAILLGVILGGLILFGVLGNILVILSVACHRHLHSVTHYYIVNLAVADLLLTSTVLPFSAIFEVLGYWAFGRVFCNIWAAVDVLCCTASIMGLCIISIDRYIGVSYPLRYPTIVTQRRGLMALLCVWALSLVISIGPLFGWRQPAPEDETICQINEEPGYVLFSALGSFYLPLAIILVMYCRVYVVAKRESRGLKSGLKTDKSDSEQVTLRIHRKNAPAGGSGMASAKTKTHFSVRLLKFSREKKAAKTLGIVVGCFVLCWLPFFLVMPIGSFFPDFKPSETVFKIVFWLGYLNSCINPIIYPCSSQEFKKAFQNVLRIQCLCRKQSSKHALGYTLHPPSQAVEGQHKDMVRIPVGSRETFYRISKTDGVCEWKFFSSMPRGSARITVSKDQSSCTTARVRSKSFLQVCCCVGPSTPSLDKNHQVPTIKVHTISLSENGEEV

Test [7] addresses T5, Muscarinic acetylcholine receptor M1 (Homo sapiens, UniProt P11229).
T5 sequence (P11229 whole entry): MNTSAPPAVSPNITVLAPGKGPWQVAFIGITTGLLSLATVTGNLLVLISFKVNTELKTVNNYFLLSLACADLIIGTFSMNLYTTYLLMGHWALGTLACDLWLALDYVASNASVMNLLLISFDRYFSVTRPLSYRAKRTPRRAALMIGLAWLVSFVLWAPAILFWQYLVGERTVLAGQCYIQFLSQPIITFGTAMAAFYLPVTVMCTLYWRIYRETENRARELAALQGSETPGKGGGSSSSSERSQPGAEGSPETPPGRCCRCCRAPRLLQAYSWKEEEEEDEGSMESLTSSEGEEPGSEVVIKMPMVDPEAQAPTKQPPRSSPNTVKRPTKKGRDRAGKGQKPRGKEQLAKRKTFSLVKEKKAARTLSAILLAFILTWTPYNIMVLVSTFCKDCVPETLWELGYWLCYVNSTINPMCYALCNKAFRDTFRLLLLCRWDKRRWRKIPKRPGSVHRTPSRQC

Test [8] deals with D(1A) dopamine receptor (Homo sapiens, UniProt P21728).
Chain of D(1A) dopamine receptor (P21728 whole entry): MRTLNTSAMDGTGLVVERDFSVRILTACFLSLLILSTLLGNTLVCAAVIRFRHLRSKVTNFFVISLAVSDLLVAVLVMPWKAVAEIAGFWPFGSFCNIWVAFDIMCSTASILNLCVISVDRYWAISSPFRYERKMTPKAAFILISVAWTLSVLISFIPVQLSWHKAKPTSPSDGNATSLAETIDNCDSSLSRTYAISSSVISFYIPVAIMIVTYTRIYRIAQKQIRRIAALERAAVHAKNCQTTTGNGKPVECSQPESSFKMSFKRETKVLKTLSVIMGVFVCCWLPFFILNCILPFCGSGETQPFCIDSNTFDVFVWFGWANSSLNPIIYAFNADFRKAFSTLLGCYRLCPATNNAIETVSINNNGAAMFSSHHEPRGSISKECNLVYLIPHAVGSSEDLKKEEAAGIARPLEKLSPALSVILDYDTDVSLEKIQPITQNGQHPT
Test [9] has as its target Sodium-dependent serotonin transporter (Homo sapiens, UniProt P31645).
Also: assay procedure not described here.

Chain of Type-2 angiotensin II receptor (P50052 whole entry): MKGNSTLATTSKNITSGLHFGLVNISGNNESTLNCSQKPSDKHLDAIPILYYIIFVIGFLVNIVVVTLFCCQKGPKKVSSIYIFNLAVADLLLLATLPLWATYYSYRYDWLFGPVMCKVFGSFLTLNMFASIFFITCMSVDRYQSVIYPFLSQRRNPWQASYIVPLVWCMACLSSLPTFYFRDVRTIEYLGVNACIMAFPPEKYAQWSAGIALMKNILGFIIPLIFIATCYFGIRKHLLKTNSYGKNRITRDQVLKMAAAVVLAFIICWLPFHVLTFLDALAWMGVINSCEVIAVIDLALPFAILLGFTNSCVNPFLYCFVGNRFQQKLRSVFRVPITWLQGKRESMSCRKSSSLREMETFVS
Chain of Sodium-dependent serotonin transporter (P31645 whole entry): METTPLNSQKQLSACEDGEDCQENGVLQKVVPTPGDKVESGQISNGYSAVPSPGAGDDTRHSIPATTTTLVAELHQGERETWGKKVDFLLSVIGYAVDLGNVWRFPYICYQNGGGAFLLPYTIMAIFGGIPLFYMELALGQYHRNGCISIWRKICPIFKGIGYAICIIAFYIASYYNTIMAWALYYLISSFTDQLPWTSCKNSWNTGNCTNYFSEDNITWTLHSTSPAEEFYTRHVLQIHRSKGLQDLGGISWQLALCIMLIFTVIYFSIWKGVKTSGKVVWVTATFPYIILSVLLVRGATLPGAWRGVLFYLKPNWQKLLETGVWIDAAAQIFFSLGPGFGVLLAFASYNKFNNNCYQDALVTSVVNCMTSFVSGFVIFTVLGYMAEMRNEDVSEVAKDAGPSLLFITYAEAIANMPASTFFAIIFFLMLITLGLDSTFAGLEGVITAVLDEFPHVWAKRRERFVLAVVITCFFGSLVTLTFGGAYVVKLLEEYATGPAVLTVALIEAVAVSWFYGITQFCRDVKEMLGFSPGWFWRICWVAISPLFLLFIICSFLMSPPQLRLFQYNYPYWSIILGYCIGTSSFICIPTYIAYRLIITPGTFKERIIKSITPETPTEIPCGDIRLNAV

For `CC(C)c1c(C(=O)Nc2ccccc2)c(-c2ccccc2)c(-c2ccc(F)cc2)n1CC[C@@H](O)C[C@@H](O)CC(=O)O` [ATORVASTATIN], the AC50 – broadly, the concentration at which the activity in the assay is half-maximal – in test [1] was greater than 30 µM. Compound `[H]/N=C(/N)c1ccc(NCc2nc3cc(C(=O)N(CCC(=O)O)c4ccccn4)ccc3n2C)cc1` [DABIGATRAN] gave an AC50 in test [2] greater than 30 µM. In [3], `Cc1c(O)c(=O)ccn1C` [DEFERIPRONE] gave an AC50 greater than 100 µM. With `CCNC(C)Cc1cccc(C(F)(F)F)c1` (centres undefined) [FENFLURAMINE], the AC50 in test [4] stood at 3.71 µM. For the compound BIVALIRUDIN, the AC50 in test [5], in test [6], in [7], in test [8] and in test [9] was greater than 30 µM throughout.
